For 21 compounds, IC50 results are on record in US8389557B2, “Triazole derivatives useful as Axl inhibitors” (Rigel Pharmaceuticals, Inc., priority 2005, dated 2013).

This experiment has as its target T1, Axl (Homo sapiens, UniProt P30530).
T1 construct: endogenous in cells; host or cells: HeLa cells
T1 sequence (P30530 26-894): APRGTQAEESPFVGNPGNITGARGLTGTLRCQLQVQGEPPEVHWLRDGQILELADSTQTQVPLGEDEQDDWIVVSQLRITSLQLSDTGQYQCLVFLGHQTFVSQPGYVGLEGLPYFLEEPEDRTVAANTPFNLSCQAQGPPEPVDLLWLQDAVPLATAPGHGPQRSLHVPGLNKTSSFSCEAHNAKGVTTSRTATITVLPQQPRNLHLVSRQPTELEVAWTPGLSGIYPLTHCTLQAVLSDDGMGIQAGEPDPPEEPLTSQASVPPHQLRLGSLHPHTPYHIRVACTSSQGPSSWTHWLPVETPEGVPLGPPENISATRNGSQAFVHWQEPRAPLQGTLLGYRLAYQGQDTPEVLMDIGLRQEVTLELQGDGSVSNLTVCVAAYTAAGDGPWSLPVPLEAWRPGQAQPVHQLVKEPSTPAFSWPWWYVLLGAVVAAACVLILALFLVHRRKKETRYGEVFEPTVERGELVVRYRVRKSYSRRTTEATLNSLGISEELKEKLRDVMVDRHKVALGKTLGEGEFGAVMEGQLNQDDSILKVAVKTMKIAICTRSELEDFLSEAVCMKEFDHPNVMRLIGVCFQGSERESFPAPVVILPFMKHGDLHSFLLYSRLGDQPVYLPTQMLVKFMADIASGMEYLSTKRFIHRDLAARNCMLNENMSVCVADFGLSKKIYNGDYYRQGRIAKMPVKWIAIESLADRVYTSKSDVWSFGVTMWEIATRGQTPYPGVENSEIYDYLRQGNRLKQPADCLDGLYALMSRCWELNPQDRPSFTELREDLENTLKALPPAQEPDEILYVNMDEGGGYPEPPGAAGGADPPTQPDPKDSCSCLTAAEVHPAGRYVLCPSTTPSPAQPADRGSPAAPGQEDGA
The experiment can be described thus: Phospho-Akt in-cell Western assay (inhibition of Axl activity). In kind it is cell-based. As to the method:
The compounds of the invention were tested in the following assay for their ability to inhibit Axl activity.
Phospho-Akt in-Cell Western Assay
• Cell culture plate: 96 well assay plate (Corning 3610), white, clear bottom, tissue-culture treated. • Cells: Hela cells. • Starvation medium: For Axl stimulation: 0.5% FCS (fetal calf serum) in DMEM, plus Axl/Fc (extracellular domain of AXL fused to immunoglobulin Fc region) (R&D, 154-AL) 500 ng/mL. • For EGF (epidermal growth factor) stimulation: 0.5% FCS in DMEM (Dulbecco's modified Eagles medium). • Poly-L-Lysine 0.01% solution (the working solution): 10 μg/ml, dilute In PBS (phosphate buffered saline). • Axl antibody cross-linking: • 1st: Mouse anti-Axl (R&D, MAB154). • 2nd: Biotin-SP-conjugated AffiniPure goat anti-mouse IgG (H+L) (Jackson ImmunoResearch #115-065-003). • Fixing buffer: 4% formaldehyde in PBS. • Wash buffer: 0.1% TritonX-100 in PBS. • Quenching buffer: 3% H2O2, 0.1% Azide in wash buffer, Azide and hydrogen peroxide (H2O2) are added fresh. • Blocking buffer: 5% BSA in TBST (tris buffered saline plus 0.1% Tween 20). • Primary antibody: Rabbit anti-human Phospho-Akt antibody (Cell Signaling 9271): 1×250 diluted in blocking buffer. • Secondary antibody: HRP (horse radish peroxidase)-conjugated Goat anti-Rabbit secondary, stock solution: Jackson ImmunoResearch (Goat anti-Rabbit HRP, #111-035-144) 1:1 diluted in glycerol, store at −20° C. The working solution: 1×2000 dilution of stock in blocking buffer. • Chemiluminescent working solution (Pierce, 37030): SuperSignal ELISA (enzyme linked immunosorbant assay) Pico Chemiluminescent substrate. • Crystal Violet solution: Stock: 2.5% Crystal violet in methanol, filtered and kept at ambient temperature. The working solution: dilute the stock 1:20 with PBS immediately before use. • 10% SDS: working solution: 5% SDS (sodium dodecylsulfate), diluted in PBS Methods: Day 1:
A 96 well TC (tissue culture treated) plate was coated with 10 μg/mL poly-L-Lysine at 37° C. for 30 min, washed twice with PBS, and air-dried for 5 minutes before cells were added. Hela cells were seeded at 10,000 cells/well and the cells were starved in 100 μL starvation medium containing Axl/Fc for 24 hrs.
The cells were pre-treated with test compounds by adding 100 μL of 2× test compound to the starvation medium on the cells. The cells were incubated at 37° C. for 1 hr before stimulation.
The cells were stimulated by Axl-antibody cross-linking as follows: A 5×1st/2nd Axl antibody mixture was made (37.5 μg/mL 1st/100 μg/mL 2nd) in starvation medium and nutated at 4° C. with thorough mixing for 1-2 hours for clustering. The resulting mix was warmed to 37° C. 50 μL of 5× Axl 1st/2nd of antibody cluster was added to the cells and the cells were incubated at 37° C. for 5 min.
After 5 minutes stimulation, the plate was flicked to remove medium and the plate was tapped onto paper towels. Formaldehyde (4.0% in PBS, 100 μL) was added to fix the cells and the cells were incubated at ambient temperature for 20 min without shaking.
The cells were washed with a plate washer buffer to remove the formaldehyde solution. The plate was flicked to removed excess wash buffer and tapped onto paper towels. Quenching buffer (100 μL) was added to each well and the cells were incubated at ambient temperature for 20 minutes without shaking.
The cells were washed with a plate washer buffer to remove the quenching buffer. Blocking buffer (100 μL) was added and the cells were incubated at ambient temperature for at least an hour with gentle shaking.
The cells were washed with a plate washer buffer and diluted primary antibody (50 μL) was added to each well (blocking buffer was added to the negative control wells instead). The plates were incubated overnight at 4° C. with gentle shaking.
The wash buffer was removed, diluted secondary antibody (100 μL) was added, and the cells were incubated at ambient temperature for 1 hour with gentle shaking. […]

Where [1] appears, read: inhibition of Axl activity, phospho-Akt in-cell Western assay, Table 1.
Where [2] appears, read: inhibition of Axl activity, Table 1.
[3] abbreviates: Table 3, Hela cells, Axl antibody cross-linking stimulation, phospho-Akt chemiluminescence.
Setting [4] is: Table 5, Hela cells, Axl antibody cross-linking stimulation, phospho-Akt chemiluminescence.

On to `CN1CCN(c2ccc(Nc3nc(N)n(C(=O)c4cccc(OC(C)(C)C)c4)n3)cc2)CC1` [compound 358, 5-amino-1-(3-(tert-butoxy)phenyl)carbonyl-3-[4-(4-methylpiperazin-1-yl)phenylamino]-1H-1,2,4-triazole], for which the IC50 under setting [1] is < 1000 nM. Compound `CC(=O)Oc1cccc(C(=O)n2nc(Nc3ccc4c(c3)OCCO4)nc2N)c1` [compound 110, 1-(3-(Acetoxy)phenyl)carbonyl-5-amino-3-(1,4-benzodioxan-6-yl)amino-1H-1,2,4-triazole] registered an IC50 under setting [2] of 1000 to 10000 nM. In turn, `Nc1nc(Nc2ccc3c(c2)OCCO3)n(C(=O)c2ccccc2)n1` [compound 92, 3-amino-5-(1,4-benzodioxan-6-yl)amino-1-phenylcarbonyl-1H-1,2,4-triazole] registered an IC50 (Table 2, Hela cells, Axl antibody cross-linking stimulation, phospho-Akt chemiluminescence) of 1000 to 10000 nM. Compound `CC(C)(C)Oc1cccc(C(=O)n2nc(Nc3ccc(OCCn4ccnc4)cc3)nc2N)c1` [compound 371, 5-amino-1-(3-(tert-butoxy)phenyl)carbonyl-3-[4-[2-(imidazol-1-yl)ethoxy]phenylamino]-1H-1,2,4-triazole] returned an IC50 under setting [1] of 1000 to 10000 nM. Take `CC(C)(C)c1ccc(C(=O)n2nc(Nc3ccc(OCCN4CCOCC4)cc3)nc2N)cc1` [compound 266, 5-amino-1-(4-(tert-butyl)phenyl)carbonyl-3-[4-[2-(morpholin-4-yl)ethoxy]phenylamino]-1H-1,2,4-triazole]: the IC50 under setting [1] was < 1000 nM. Under setting [2], `CC(C)Oc1ccc(C(=O)n2nc(Nc3cccc(OC(C)C)c3)nc2N)cc1` [compound 122, 5-amino-3-[3-(iso-propoxy)phenylamino]-1-(4-(iso-propoxy)phenyl)carbonyl-1H-1,2,4-triazole] displayed an IC50 of 1000 to 10000 nM. For the compound `Nc1nc(Nc2ccc(OCCN3CCCC3)cc2)nn1C(=O)c1ccc(N2CCS(=O)(=O)CC2)cc1` [compound 400, 5-amino-1-(4-(1,1-dioxo-thiomorpholin-4-yl)phenyl)carbonyl-3-[4-[2-(pyrrolidin-1-yl)ethoxy]phenylamino]-1H-1,2,4-triazole], the IC50 under setting [1] was < 1000 nM. In the case of `CN1CCN(c2ccc(Nc3nc(N)n(C(=O)C4CC5CCC4C5)n3)cc2)CC1` (stereo not drawn) [compound 365, 5-amino-1-(bicyclo[2.2.1]heptan-2-yl)carbonyl-3-[4-(4-methylpiperazin-1-yl)phenylamino]-1H-1,2,4-triazole], the IC50 under setting [3] was > 20000 nM.

Consider `COc1ccccc1Nc1nc(N)n(C(=O)c2ccc(C)cc2)n1` [compound 143, 5-amino-3-[2-(methoxy)phenylamino]-1-(4-(methyl)phenyl)carbonyl-1H-1,2,4-triazole], for which the IC50 under setting [2] is > 20000 nM. For `CC(C)Oc1ccc(Nc2nc(N)n(C(=O)c3cccc(O)c3)n2)cc1` [compound 73, 5-amino-1-(3-(hydroxy)phenyl)carbonyl-3-[4-(iso-propoxy)phenylamino]-1H-1,2,4-triazole], the IC50 under setting [2] was in the range of 1000 to 10000 nM.

With `Cc1cccc(C(=O)n2nc(Nc3ccc4c(c3)NC(=O)C(F)(F)O4)nc2N)c1` [compound 64, 5-amino-3-(2,2-difluoro-2H-benzo[b][1,4]oxazin-3(4H)-on-6-yl)amino-1-(3-(methyl)phenyl)carbonyl-1H-1,2,4-triazole], the IC50 under setting [4] is > 20000 nM.

For the compound `Nc1nc(Nc2ccc(OCCN3CCCCCC3)cc2)nn1C(=O)c1ccc2cc[nH]c2c1` [compound 323, 5-amino-1-(1H-indol-6-yl)carbonyl-3-[4-[2-(azepan-1-yl)ethoxy]phenylamino]-1H-1,2,4-triazole], the IC50 under setting [3] is < 1000 nM. Turning to `Cc1cccc(C(=O)n2nc(Nc3cccnc3)nc2N)c1` [compound 220, 5-amino-1-(3-methylphenyl)carbonyl-3-(pyridin-3-yl)amino-1H-1,2,4-triazole], the IC50 under setting [4] was > 20000 nM. With `COc1cc(Nc2nc(N)n(C(=O)c3cccc(N4CCOCC4)c3)n2)ccc1OCCN1CCCC1` [compound 344, 5-amino-1-(3-(morpholin-4-yl)phenyl)carbonyl-3-[3-methoxy-4-[2-(pyrrolidin-1-yl)ethoxy]phenylamino]-1H-1,2,4-triazole], the IC50 under setting [1] is < 1000 nM.

`CN(C)c1cccc(C(=O)n2nc(Nc3ccc(OCCN4CCCC4)cc3)nc2N)c1` [compound 197, 5-amino-1-(3-(dimethylamino)phenyl)carbonyl-3-[4-[2-(pyrrolidin-1-yl)ethoxy]phenylamino]-1H-1,2,4-triazole]: under setting [1], the IC50 was > 20000 nM. Regarding `Cc1cccc(NC(=O)n2nc(N)nc2Nc2ccc(OCCN3CCCCC3)cc2)c1` [compound 187, 3-amino-N-(3-(methyl)phenyl)-5-[4-[2-(piperidin-1-yl)ethoxy]phenylamino]-1H-1,2,4-triazole-1-carboxamide], the IC50 (Table 8, Hela cells, Axl antibody cross-linking stimulation, phospho-Akt chemiluminescence) was 1000 to 10000 nM. On to `Cc1cccc(C(=O)n2nc(Nc3ccc4sncc4c3)nc2N)c1` [compound 259, 5-amino-3-(1,2-benzisothiazol-5-yl)amino-1-(3-methylphenyl)carbonyl-1H-1,2,4-triazole], for which, under setting [4], the IC50 is > 20000 nM. `Nc1nc(Nc2ccc(OCCN3CCCC3)cc2)nn1C(=O)c1ccc2sccc2c1` [compound 369, 5-amino-1-(benzo[b]thiophen-5-yl)carbonyl-3-[4-[2-(pyrrolidin-1-yl)ethoxy]phenylamino]-1H-1,2,4-triazole]: under setting [3], the IC50 is < 1000 nM.

As for `CC(C)Oc1ccc(C(=O)n2nc(NC3C4C=CC(C4)C3C(N)=O)nc2N)cc1` (stereo not drawn) [compound 354, 5-amino-1-(4-(iso-propoxy)phenyl)carbonyl-3-[(5-(aminocarbonyl)bicyclo[2.2.1]hept-2-en-6-yl)-amino]-1H-1,2,4-triazole], the IC50 under setting [4] is > 20000 nM.

For `Nc1nc(Nc2ccc(OCCN3CCCC3)cc2)nn1C(=O)c1ccc(-c2cccs2)cc1` [compound 311, 5-amino-1-(4-(thien-2-yl)phenyl)carbonyl-3-[4-[2-(pyrrolidin-1-yl)ethoxy]phenylamino]-1H-1,2,4-triazole], the IC50 under setting [1] is < 1000 nM. With `Nc1nc(Nc2ccc(OCCN3CCCC3)c(F)c2)nn1C(=O)c1ccc2cc[nH]c2c1` [compound 309, 5-amino-1-(1H-indol-6-yl)carbonyl-3-[3-fluoro-4-[2-(pyrrolidin-1-yl)ethoxy]phenylamino]-1H-1,2,4-triazole], the IC50 under setting [3] is < 1000 nM.
